Entries after “also recorded” stand apart in the source; their conditions may differ.
How the values were obtained:
BN2 glioblastoma [1] = test: Detection of intracranial dissemination by PCR of human-specific α-satellite DNA in brain biopsies; assay type: in vivo, NSG mice; conditions: compared to SCR-AO treated group
Source text: To detect intracranial micrometastasis, the animals in experiments detailed in FIG. 14 were biopsied from adjacent sections of brain. The biopsy specimen were subjected to PCR assay using primers that specifically detect human-specific a-satellite DNA sequence of the centromere region of chromosome 17. Areas evaluated include the left parietal lobe, at a distance of 2 mm from the focus of initial tumor inoculation (Area I) and the right SSCx equidistant from the interhemispheric fissure relative to the focus of initial tumor inoculation (Area II) (FIG. 15).

TNBC [2] = test: Detection of micrometastasis using PCR in TNBC metastatic niches of AO treated animals; assay type: in vivo, mice; conditions: α-satellite DNA of chromosome 17
Description: FIG. 4E. Detection of micrometastasis using PCR. Key TNBC metastatic niches were analyzed for micrometastasis using primers directed towards a human-specific alpha-satellite DNA sequence of the centromere region of human chromosome 17.
Moreover, PCR using primers that specifically detect human-specific a-satellite DNA sequence of the centromere region of human chromosome 17 indicated no micrometastasis in the treated group.

BN2 glioblastoma [3] = test: Glioblastoma PDX (BN2) intracranial model, ICV administration of AO, 2PE imaging and histology; assay type: in vivo, NSG mice
Source text: For the experiments reported here, the BN2 glioblastoma specimen was used in xenograft studies, and the results are shown in FIG. 14. Glioblastoma was induced by intracranial injection of tumor cells (into the left SSCx of NSG mice; 3×10^5 cells in PBS+Martigel; n=5 mice/group) isolated from primary glioblastoma tissue. At the time of the injection, a chronic cranial window was installed on the left side of the animal's skull that allowed in vivo 2PE imaging of tumor evolution.
For intracerebroventricular (ICV) administration of AO targeting TRAF3IP2 (TRAF3IP2-AO) or control scrambled AO (SCR-AO), a brain cannula was stereotaonctically implanted into the contralateral (right) ventricle (FIG. 14-A). Treatment of mice started on day 10 post-tumor induction with 5 μl every 48 h; 30 nanomolar AO (FIG. 14-B).
Using in vivo 2PE microscopy, angiograms of microvessels in glioblastoma tumors were captured through a cranial window after i.v. injection of fluorescein isothiocyanatedextran for visualization of blood vessels (green signal). Images correspond to day 24 post-tumor induction, after 8 ICV treatments with either SCR-AO (B, I&II; control group), or TRAF3IP2-AO (B IV&V).
Protein expression in residual tumors confirmed that targeting TRAF3IP2 suppresses inflammation, neoangiogenesis, cell cycle and apoptosis (FIG. 14-D).

wild type 4IC cells = test: 4IC tumors in vivo, combination therapy with Paclitaxel and TRAF3IP2-AO; conditions: vs SCR-AO group
Description: At first, tumors were induced using wild type 4IC cells using a similar set up described in FIG. 5. After tumor induction, each group was treated with one of the following: SCR-AO (4IC SCR-AO Treated), SCR-AO and Paclitaxel (SCR-AO+Paclitaxel Treated), TRAF3IP2-AO Treated, or TRAF3IP2-AO and Paclitaxel (TRAF3IP2-AO+Paclitaxel Treated).

TRAF3IP2 = test: Post-mortem Western blotting and immunohistochemical analysis of residual TNBC tumor of AO treated animals; assay type: in vivo
Source text: Post-mortem analysis of residual tumor confirmed that targeting TRAF3IP2 suppresses inflammation, angiogenesis, cell cycle and apoptosis, and genes involved in exosome release (FIG. 7(A)).

4IC tumors = test: Treatment of late stage metastatic TNBC, bioluminescence imaging; assay type: in vivo, mice; conditions: 100 μg in 50 μl interperitoneally every 48 hours from day 42
Description: To see if targeting and silencing TRAF3IP2 eliminates metastatic tumors in advanced metastatic TNBC, PDX model were used. 4IC tumors were induced intramammary into mice using 4IC cells [carrying a luciferase-expressing gene for ‘bioluminescence imaging’. Treatment was initiated in late stage BC indicated by advanced metastasis detectable by luciferase imaging (day 42). Animals were treated with TRAF3IP2-AO (100 μg in 50 μl) administered interperitoneally every 48 hours. Control group received SCR-AO in the same fashion (Data not shown). Representative images showing the extend of metastasis after treatment 1(T1), T5, T10, and T15. The control animals were treated with SCR-AO only on T1 and were euthanized due to the increasing tumor growth.

TNBC [4] = test: TNBC treated in vivo with antisense oligonucleotide, immunohistochemical analysis of angiogenesis
Source text: Also, it is notable that TRAF3IP2 induces the expression and release of pro-angiogenic mediators into the TME, activating endothelial cells to promote neo-vascularization. TRAF3IP2 silencing.

TNBC cells = test: Membrane potential assay (mitochondrial) in TNBC cells; assay type: cell-based, human; conditions: in TRAF3IP2 knockdown cells
KNS = test: MTT assay with IGU, pediatric GBM cell line; assay type: cell-based, human
Description: (§1) In vitro investigations were carried out using transduced TNBC cell line (MDAMB-231) and patient derived TNBC cells (4IC), pediatric GBM cell line (KNS), and adult GBM cell line (U87) by targeting and suppressing/silencing TRAF3IP2 expression using shRNA Lentiviral vector (TRAF3IP2KD) versus shRNA control (SCR). Using MTT assay, we treated malignant cells with low and high concentrations of IGU to test cell proliferation, viability, and apoptosis compared to vehicle (DMSO) treated cells. It is shown in FIG. 16 that the silencing of TRAF3IP2 enhances the effect of IGU on adult glioblastoma cells (U87), pediatric glioblastoma cells (KNS) and on triple negative cancer cell growth (data not shown).

U87 = test: MTT assay with IGU, adult GBM cell line; assay type: cell-based, human
Description: as §1

4IC = test: Cell cycle profile of 4IC cells in vitro, Paclitaxel and TRAF3IP2 knockdown; assay type: cell-based, human
Source text: One chemotherapy agent being tested is Paclitaxel. […] Paclitaxel has been previously shown to arrest cell cycle progression at the G2/M phase, resulting in apoptosis.

“TRAF3IP2-AO: anti-sense oligonucleotide targeting TRAF3IP2, SEQ ID NO: 2 mG*mG*mU*mG*mG*G*C*A*C*A*T*G*C*T*C*mC*mU*mU*mC*mU” was tested, and the “intracranial metastasis at Area I (left parietal lobe) and Area II (right SSCx)” value (BN2 glioblastoma [1]) was “markedly reduced metastasis at both sites”, the “micrometastasis: human-specific DNA sequence in most common metastatic sites” value (TNBC [2]) was “No human specific DNA sequence was detected” and the “tumor growth / tumor size” value (BN2 glioblastoma [3]; ICV, 5 μl every 48 h, 30 nanomolar AO from day 10, vs. SCR-AO) was “reduced tumor growth; also recorded: marked reduction in tumor size; also recorded: significantly less growth and smaller volumes”. For the same compound, the “blood vessel density / vascularization” value (BN2 glioblastoma [3]; compared to SCR-AO treated) was “lower blood vessel density/angiogenesis; also recorded: less vascularization”, the “glioblastoma cells (human cells) in residual tumor tissue, staining for human-specific mitochondria” value (BN2 glioblastoma [3]; mouse, in vivo) was “significantly less number” and the “infiltrating cells in subcortical areas (histology of brain sections)” value (BN2 glioblastoma [3]; mouse, in vivo) was “significantly smaller number of infiltrating cells”. The “reduction of tumor volume / tumor size” value (wild type 4IC cells) was 78%, the “immunohistochemical levels of TRAF3IP2, IL8 and Caspase 3 in tumor” value (TRAF3IP2; treated group vs. SCR-AO) was “decreased levels of TRAF3IP2 and IL8 and increased Caspase 3” and the “levels of TRAF3IP2, IL8, IL1b, and VEGF in tumors (protein expression analysis)” value (TRAF3IP2; vs. SCR-AO) was “significantly lower levels”. The “luciferase signal (metastasis)” value (4IC tumors) was “marked reduction of luciferase signal, reaching undetectable levels after 15 treatments”, the tumor growth (TNBC [4]; TNBC in vivo) was “reduced tumor growth” and the “blood vessel density/angiogenesis (CD31 staining)” value (TNBC [4]; compared to SCR-AO treated tumors) was “lower blood vessel density/angiogenesis”. The “TNBC cells (human cells) in residual tumor tissue, staining for human-specific mitochondria” value (TNBC [4]; in vivo) was “significantly less number”.
In the case of FCCP, the “mitochondrial membrane potential on addition of FCCP” value (TNBC cells) is reported as “does not decrease mitochondrial membrane potential”.
With CS(=O)(=O)Nc1cc2occ(NC=O)c(=O)c2cc1Oc1ccccc1 [IGU, N-[7-(methanesulfonamido)-4-oxo-6-phenoxychromen-3-yl]formamide] the cell viability (KNS; 24 hours, C2, KNS control) was “about 65%”, the cell viability (KNS; 24 hours, C2, KNSTRAF3IP2KD) was “about 55%” and the cell viability (KNS; 48 hours, C1, KNS control) was “about 55%”. For the same compound, the cell viability (KNS; 48 hours, C1, KNSTRAF3IP2KD) was “about 45%”, the cell viability (KNS; 72 hours, C2, KNS control) was “about 40%” and the cell viability (KNS; 72 hours, C2, cells not named (KNSTRAF3IP2KD implied)) was “about 25%”. The cell viability (U87; 48 hours, C2 (224.823 mM IGU), U87TRAF3IP2KD) was “about 40%”, the cell viability (U87; 48 hours, C2 (224.823 mM IGU), control group U87) was “about 50%” and the cell viability (U87; 72 hours, C2, U87TRAF3IP2KD) was “about 20%”. For the same compound, the cell viability (U87; 72 hours, C2, control group U87) was “about 40%”.
CC(=O)O[C@H]1C(=O)[C@@]2(C)[C@H]([C@H](OC(=O)c3ccccc3)[C@]3(O)C[C@H](OC(=O)[C@H](O)[C@@H](NC(=O)c4ccccc4)c4ccccc4)C(C)=C1C3(C)C)[C@]1(OC(C)=O)CO[C@@H]1C[C@@H]2O [Paclitaxel, reference compound] was tested, and the “increase of proportion of cells in G2” value (4IC) was 23% and the “reduction of tumor volume / tumor size” value (wild type 4IC cells) was 42%.
